Converted amounts (≈) assume the structure as drawn.
Columns and labels:
[1] = Peak free concentration at 150 mg/24 hrs regimen in vitro PK model; format: ADME
[2] = Peak free concentration at 175 mg/24 hrs regimen in vitro PK model; format: ADME
Streptococcus pneumoniae [3] = test: Bactericidal activity against Streptococcus pneumoniae ATCC 49619 with Parc S79Y mutation and gyrA S81F mutation at fAUC/MIC of 35 after 48 hrs in pharmacodynamic model; settings: ATCC 49619, 48 h
Streptococcus pneumoniae [4] = test: Bactericidal activity against Streptococcus pneumoniae BSP-2443 at fAUC/MIC of 62 after 24 to 96 hrs in pharmacodynamic model; settings: BSP2443
[5] = Peak free concentration at 200 mg/24 hrs regimen in vitro PK model; format: ADME
Streptococcus pneumoniae [6] = test: Bactericidal activity against Streptococcus pneumoniae BSP-2443 with parC S52G, N91D mutation and gyrA S114G mutation at fAUC/MIC of 51 after 96 hrs in pharmacodynamic model; settings: BSP2443, 96 h
Streptococcus pneumoniae [7] = test: Bactericidal activity against Streptococcus pneumoniae ATCC 49619 at fAUC/MIC of 144 after 24 to 96 hrs in pharmacodynamic model
[8] = Half life at 175 mg/24 hrs regimen in vitro PK model; format: ADME
Streptococcus pneumoniae [9] = test: Bactericidal activity against Streptococcus pneumoniae ATCC 49619 at fAUC/MIC of 67 after 24 to 96 hrs in pharmacodynamic model
Streptococcus pneumoniae [10] = test: Bactericidal activity against Streptococcus pneumoniae BSP-2443 with parC S52G, N91D mutation at fAUC/MIC of 51 after 72 hrs in pharmacodynamic model; settings: BSP2443, 72 h
[11] = Half life at 150 mg/24 hrs regimen in vitro PK model; format: ADME
Streptococcus pneumoniae [12] = test: Bactericidal activity against Streptococcus pneumoniae ATCC 49619 at fAUC/MIC of 60 after 24 hrs in pharmacodynamic model; settings: ATCC 49619, 24 h
Streptococcus pneumoniae [13] = test: fAUC/MIC ratio of Streptococcus pneumoniae ATCC 49619 at 150 mg
Streptococcus pneumoniae [14] = test: Bactericidal activity against Streptococcus pneumoniae ATCC 49619 with S79Y Parc mutation and S81F gyrA mutation at fAUC/MIC of 60 after 96 hrs in pharmacodynamic model; settings: ATCC 49619, 96 h
[15] = Half life at 100 mg/24 hrs regimen in vitro PK model; format: ADME
Streptococcus pneumoniae [16] = test: fAUC/MIC ratio of Streptococcus pneumoniae BSP-2443 at 235 mg
[17] = Peak free concentration at 400 mg/24 hrs regimen in vitro PK model; format: ADME
Streptococcus pneumoniae [18] = test: fAUC/MIC ratio of Streptococcus pneumoniae ATCC 49619 at 100 mg
[19] = Half life at 200 mg/24 hrs regimen in vitro PK model; format: ADME
Streptococcus pneumoniae [20] = test: fAUC/MIC ratio of Streptococcus pneumoniae ATCC 49619 at 175 mg
Streptococcus pneumoniae [21] = test: Bactericidal activity against Streptococcus pneumoniae ATCC 49619 with parC S79Y mutation at fAUC/MIC of 60 after 72 hrs in pharmacodynamic model; settings: ATCC 49619, 72 h
Streptococcus pneumoniae [22] = test: Susceptibility of Streptococcus pneumoniae ATCC 49619 by microdilution method; format: functional
Streptococcus pneumoniae [23] = test: Bactericidal activity against Streptococcus pneumoniae ATCC 49619 at fAUC/MIC of 60 after 48 hrs in pharmacodynamic model; settings: ATCC 49619, 48 h
[24] = Half life at 400 mg/24 hrs regimen in vitro PK model; format: ADME
Streptococcus pneumoniae [25] = test: fAUC/MIC ratio of Streptococcus pneumoniae ATCC 49619 at 200 mg
Streptococcus pneumoniae [26] = test: Susceptibility of Streptococcus pneumoniae BSP-2443 by microdilution method; format: functional; settings: BSP2443
Streptococcus pneumoniae [27] = test: Bactericidal activity against Streptococcus pneumoniae ATCC 49619 at fAUC/MIC of 66 after 24 to 96 hrs in pharmacodynamic model
[28] = Peak free concentration at 100 mg/24 hrs regimen in vitro PK model; format: ADME
Streptococcus pneumoniae [29] = test: Bactericidal activity against Streptococcus pneumoniae ATCC 49619 with Parc S79Y mutation and gyrA S81F mutation at fAUC/MIC of 35 after 72 hrs in pharmacodynamic model; settings: ATCC 49619, 72 h
Streptococcus pneumoniae [30] = test: Bactericidal activity against Streptococcus pneumoniae ATCC 49619 with Parc S79Y mutation and gyrA S81F mutation at fAUC/MIC of 35 after 96 hrs in pharmacodynamic model; settings: ATCC 49619, 96 h
Streptococcus pneumoniae [31] = test: fAUC/MIC ratio of Streptococcus pneumoniae BSP-2443 at 198 mg
Streptococcus pneumoniae [32] = test: fAUC/MIC ratio of Streptococcus pneumoniae ATCC 49619 at 400 mg
Streptococcus pneumoniae [33] = test: Bactericidal activity against Streptococcus pneumoniae BSP-2443 at fAUC/MIC of 51 after 24 to 48 hrs in pharmacodynamic model; settings: BSP2443
Streptococcus pneumoniae [34] = test: Bactericidal activity against Streptococcus pneumoniae ATCC 49619 with Parc S79Y mutation at fAUC/MIC of 35 after 24 hrs in pharmacodynamic model; settings: ATCC 49619, 24 h
Streptococcus pneumoniae [35] = test: Bactericidal activity against Streptococcus pneumoniae BSP-2443 at fAUC/MIC of 34 after 24 to 48 hrs in pharmacodynamic model; settings: BSP2443
Streptococcus pneumoniae [36] = test: fAUC/MIC ratio of Streptococcus pneumoniae ATCC 49610 at 75 mg
Streptococcus pneumoniae [37] = test: fAUC/MIC ratio of Streptococcus pneumoniae ATCC 49610 at 250 mg
Streptococcus pneumoniae [38] = test: Bactericidal activity against Streptococcus pneumoniae ATCC 49619 at fAUC/MIC of 65.3 after 24 to 96 hrs in pharmacodynamic model
Streptococcus pneumoniae [39] = test: Bactericidal activity against Streptococcus pneumoniae ATCC 49619 at fAUC/MIC of 146 after 24 to 96 hrs in pharmacodynamic model
Streptococcus pneumoniae [40] = test: Bactericidal activity against Streptococcus pneumoniae ATCC 49619 at fAUC/MIC of 78 after 24 to 96 hrs in pharmacodynamic model
Streptococcus pneumoniae [41] = test: Bactericidal activity against Streptococcus pneumoniae ATCC 49619 at fAUC/MIC of 37 after 24 to 48 hrs in pharmacodynamic model
[42] = Peak free concentration at 250 mg/24 hrs regimen in vitro PK model; format: ADME
Streptococcus pneumoniae [43] = test: Bactericidal activity against Streptococcus pneumoniae BSP-2443 at fAUC/MIC of 51.3 after 24 to 96 hrs in pharmacodynamic model; settings: BSP2443
[44] = Half life at 250 mg/24 hrs regimen in vitro PK model; format: ADME
Streptococcus pneumoniae [45] = test: Bactericidal activity against Streptococcus pneumoniae ATCC 49619 at fAUC/MIC of 119 after 24 to 96 hrs in pharmacodynamic model
[46] = Half life at 75 mg/24 hrs regimen in vitro PK model; format: ADME
Streptococcus pneumoniae [47] = test: fAUC/MIC ratio of Streptococcus pneumoniae ATCC 49610 at 320 mg
[48] = Peak free concentration at 50 mg/24 hrs regimen in vitro PK model; format: ADME
Streptococcus pneumoniae [49] = test: fAUC/MIC ratio of Streptococcus pneumoniae BSP-2443 at 50 mg
[50] = Half life at 320 mg/24 hrs regimen in vitro PK model; format: ADME
[51] = Peak free concentration at 75 mg/24 hrs regimen in vitro PK model; format: ADME
[52] = Half life at 50 mg/24 hrs regimen in vitro PK model; format: ADME
[53] = Peak free concentration at 320 mg/24 hrs regimen in vitro PK model; format: ADME
Streptococcus pneumoniae [54] = test: Bactericidal activity against Streptococcus pneumoniae BSP-2443 at fAUC/MIC of 60.2 after 24 to 96 hrs in pharmacodynamic model; settings: BSP2443
Streptococcus pneumoniae [55] = test: Bactericidal activity against Streptococcus pneumoniae BSP-2443 with parC S79Y, S52G, N91D mutation and gyrA S114G mutation at fAUC/MIC of 34 after 72 to 96 hrs in pharmacodynamic model; settings: BSP2443
Streptococcus pneumoniae [56] = test: Bactericidal activity against Streptococcus pneumoniae ATCC 49619 at fAUC/MIC of 50.5 after 24 to 96 hrs in pharmacodynamic model
Streptococcus pneumoniae [57] = test: Bactericidal activity against Streptococcus pneumoniae ATCC 49619 with parC S79Y mutation at fAUC/MIC of 37 after 96 hrs in pharmacodynamic model; settings: ATCC 49619, 96 h
Streptococcus pneumoniae [58] = test: Bactericidal activity against Streptococcus pneumoniae ATCC 49619 with parC S79Y mutation at fAUC/MIC of 37 after 72 hrs in pharmacodynamic model; settings: ATCC 49619, 72 h
Streptococcus pneumoniae [59] = test: fAUC/MIC ratio of Streptococcus pneumoniae BSP-2443 at 75 mg
Streptococcus pneumoniae [60] = test: fAUC/MIC ratio of Streptococcus pneumoniae ATCC 49610 at 50 mg
Streptococcus pneumoniae [61] = test: fAUC/MIC ratio of Streptococcus pneumoniae BSP-2443 at 100 mg

For `COc1c(N2CCNC(C)C2)c(F)cc2c(=O)c(C(=O)O)cn(C3CC3)c12` (centres undefined) [GATIFLOXACIN], which Activity [1] is on record?
The Activity was 1.13 µg/mL.

And the Activity [2]?
Its Activity is 1.22 µg/mL.

And the MIC (Streptococcus pneumoniae [3])?
Its MIC is 6 µg/mL.

What about the MIC (Streptococcus pneumoniae [4]) of the same compound?
The MIC was 0.25 µg/mL.

And the Activity [5]?
The Activity was 1.38 µg/mL.

What about the MIC (Streptococcus pneumoniae [6]) of the same compound?
The MIC was 3 µg/mL.

What about the MIC (Streptococcus pneumoniae [7]) of the same compound?
The MIC was 0.19 µg/mL.

What about the half-life [8] of the same compound?
Its half-life is 454 min.

And the MIC (Streptococcus pneumoniae [9])?
Its MIC is 0.19 µg/mL.

What about the MIC (Streptococcus pneumoniae [10]) of the same compound?
The MIC was 0.38 µg/mL.

What about the half-life [11] of the same compound?
Its half-life is 490 min.

What about the MIC (Streptococcus pneumoniae [12]) of the same compound?
Its MIC is 0.25 µg/mL.

And the fAUC/MIC (Streptococcus pneumoniae [13])?
The fAUC/MIC was 60.

What about the MIC (Streptococcus pneumoniae [14]) of the same compound?
Its MIC is 4 µg/mL.

And the half-life [15]?
The half-life was 459 min.

And the fAUC/MIC (Streptococcus pneumoniae [16])?
The fAUC/MIC was 62.

What about the Activity [17] of the same compound?
The Activity was 2.79 µg/mL.

What about the fAUC/MIC (Streptococcus pneumoniae [18]) of the same compound?
Its fAUC/MIC is 35.

What about the half-life [19] of the same compound?
The half-life was 519 min.

And the fAUC/MIC (Streptococcus pneumoniae [20])?
Its fAUC/MIC is 66.

And the MIC (Streptococcus pneumoniae [21])?
Its MIC is 0.75 µg/mL.

And the MIC (Streptococcus pneumoniae [22])?
The MIC was 0.025 µg/mL (≈ 0.0666 µM).

What about the MIC (Streptococcus pneumoniae [23]) of the same compound?
The MIC was 0.25 µg/mL.

And the half-life [24]?
Its half-life is 481 min.

What about the fAUC/MIC (Streptococcus pneumoniae [25]) of the same compound?
The fAUC/MIC was 67.

What about the MIC (Streptococcus pneumoniae [26]) of the same compound?
The MIC was 0.025 µg/mL (≈ 0.0666 µM).

And the MIC (Streptococcus pneumoniae [27])?
Its MIC is 0.19 µg/mL.

What about the Activity [28] of the same compound?
Its Activity is 0.71 µg/mL.

What about the MIC (Streptococcus pneumoniae [29]) of the same compound?
Its MIC is 6 µg/mL.

And the MIC (Streptococcus pneumoniae [30])?
Its MIC is 8 µg/mL.

What about the fAUC/MIC (Streptococcus pneumoniae [31]) of the same compound?
The fAUC/MIC was 51.

And the fAUC/MIC (Streptococcus pneumoniae [32])?
Its fAUC/MIC is 144.

What about the MIC (Streptococcus pneumoniae [33]) of the same compound?
The MIC was 0.25 µg/mL.

And the MIC (Streptococcus pneumoniae [34])?
Its MIC is 0.38 µg/mL.

Which results are given for `CO/N=C1\CN(c2nc3c(cc2F)c(=O)c(C(=O)O)cn3C2CC2)CC1CN` (centres undefined) [GEMIFLOXACIN]?
MIC (Streptococcus pneumoniae [35]): 0.03 µg/mL; Activity [1]: 0.31 µg/mL; fAUC/MIC (Streptococcus pneumoniae [36]): 50.5; fAUC/MIC (Streptococcus pneumoniae [37]): 119; MIC (Streptococcus pneumoniae [38]): 0.03 µg/mL; MIC (Streptococcus pneumoniae [39]): 0.03 µg/mL; MIC (Streptococcus pneumoniae [40]): 0.03 µg/mL; MIC (Streptococcus pneumoniae [41]): 0.03 µg/mL; half-life [11]: 450 min; fAUC/MIC (Streptococcus pneumoniae [13]): 78; Activity [42]: 0.51 µg/mL; MIC (Streptococcus pneumoniae [43]): 0.03 µg/mL; half-life [15]: 493 min; half-life [44]: 433 min; fAUC/MIC (Streptococcus pneumoniae [18]): 65.3; MIC (Streptococcus pneumoniae [45]): 0.03 µg/mL; half-life [46]: 431 min; fAUC/MIC (Streptococcus pneumoniae [47]): 146; Activity [48]: 0.12 µg/mL; fAUC/MIC (Streptococcus pneumoniae [49]): 34; half-life [50]: 455 min; MIC (Streptococcus pneumoniae [22]): 0.025 µg/mL (≈ 0.0642 µM); Activity [51]: 0.17 µg/mL; half-life [52]: 447 min; Activity [53]: 0.62 µg/mL; MIC (Streptococcus pneumoniae [26]): 0.025 µg/mL (≈ 0.0642 µM); MIC (Streptococcus pneumoniae [54]): 0.03 µg/mL; MIC (Streptococcus pneumoniae [55]): 0.125 µg/mL; MIC (Streptococcus pneumoniae [56]): 0.03 µg/mL; MIC (Streptococcus pneumoniae [57]): 0.25 µg/mL; Activity [28]: 0.23 µg/mL; MIC (Streptococcus pneumoniae [58]): 0.25 µg/mL; fAUC/MIC (Streptococcus pneumoniae [59]): 51.3; fAUC/MIC (Streptococcus pneumoniae [60]): 37; fAUC/MIC (Streptococcus pneumoniae [61]): 69.2

Reference: ChEMBL document CHEMBL1147116 (Antimicrob Agents Chemother, 2007)
